# Measured values taken from patent publication US20080050448A1, “ANTIMICROBIAL CONJUGATES” (priority 2006, published 2008).
# What was measured:
# [1] = system: Staphylococcus aureus NCTC 6571; assay: Lethal photosensitisation of S. aureus by gold nanoparticle-photosensitiser mixtures, white light, viable counting; assay type: cell-based
# Description: Gold nanoparticles (2.0 nm diameter; British Biocell International) in water (15×10^13 particles per ml) were mixed with an equal volume of an aqueous solution of toluidine blue O (40 μM) and left at room temperature for 15 minutes. 100 μl of the gold-TB solution was added to 100 μl of a suspension of Staphylococcus aureus NCTC 6571 in phosphate buffered saline (PBS) and this was irradiated with white light from a fluorescent white lamp for 10 minutes. Controls consisted of:
# (i) TB (final concentration=10 μM) and bacteria, irradiated for the same period of time,
# (ii) nanogold (diluted 1:1 with water) and bacteria, irradiated for the same period of time,
# (iii) bacteria without TB or nanogold, not irradiated (“control”).
# After irradiation, the number of surviving bacteria was determined by viable counting. […] Note that the TB concentration and light energy dose used were designed to give sub-optimal kills so that differences in efficacy of the TB and the TB-nanogold could be discerned. Preliminary experiments using 30 minutes light exposure achieved total kills of the bacterial suspensions in both cases.
# Gold nanoparticles of approximately 15 nm in diameter (batches NN1 and NN2 above) were mixed with an equal volume of aqueous toluidine blue O (TB) and left at room temperature for 15 minutes. TB was used at a final concentration of 1, 5, 10, 20 or 50 μM. 100 μl of the TB-gold mixture was added to 100 μl of a suspension of Staphylococcus aureus NCTC 6571 in phosphate buffered saline (PBS) (adjusted to an optical density of 0.05), and samples were irradiated with a fluorescent white light (28 W) for 10 minutes. S. aureus+TB only, and S. aureus+PBS, without photosensitiser or nanogold were used as controls. The final concentration of nanogold used was 1×10^15 particles/ml. After irradiation, the numbers of surviving bacteria were enumerated by viable counting.
# The method of Example 2 was repeated using gold nanoparticles of 2 nm diameter (British Biocell International). The final concentration of nanogold used was 4×10^13 particles/ml. […]
# [2] = system: Staphylococcus aureus NCTC 6571; assay: Lethal photosensitisation of S. aureus by TBO-tiopronin-gold nanoparticle conjugate, white light (and dark controls), viable counting; assay type: cell-based
structure (smiles),measurement,setting,value
"Cc1cc2nc3ccc(N(C)C)cc3[s+]c2cc1N.[Cl-] [TB only, toluidine blue O]",% Kill,"[1]; 10 min 28 W fluorescent white lamp, 2.0 nm gold, TB final 10 μM",93.7%
same,kill of the bacterial suspension,"[1]; preliminary experiments, 30 minutes light exposure",total kills
same,S. aureus (cfu/ml),"[1]; surviving bacteria after 10 min 28 W fluorescent white lamp, 2.0 nm gold, TB final 10 μM",8570000 cfu/ml
same,effect on S. aureus,"[2]; irradiated with white light for any length of time (15, 30, 45 minutes)",no effect
same,concentration at which significant kills of the organism were exhibited (only at this concentration),[2]; white light 30 mins,2.0 μm
